From paper PMC6992764 (Nature Communications, 2020)

How the values were obtained:
LLC tumor cells = experiment: LLC tumor cell growth (WST-1 assay); assay type: cell-based; conditions: 48 h
Procedure: To evaluate the effects of compounds on cell growth, cells were incubated with inhibitors for 48 h, then WST-1 (Dojindo) was added to the culture for the final 30 min. An Envision instrument (PerkinElmer) was used to measure the absorbance of each well at 450 nm versus a 650-nm reference to detect the amount of formazan produced from WST-1 by mitochondrial dehydrogenases in viable cells.

THP-1 cells = experiment: Chemotaxis inhibition assay (chemoTX chamber, CCL2); assay type: cell-based, human; conditions: towards CCL2, 90 min
Procedure: Chemotaxis was measured in a 96-well chemoTX chemotaxis chamber with a polycarbonate filter (5-μm pore size) (Neuro probe). Human CCL2 (R&D Systems) was added to the lower chamber of the plate and the cells were added to the upper chamber. After incubation at 37 °C and 5% CO2 for 90 min, the filter was removed and the number of migrated cells in the lower chamber was counted using a cell counting kit F (Dojindo). Data are expressed as migration efficiency (percentage of the maximal migration).

[1] = target: T1, Full-length FROUNT protein (Homo sapiens, UniProt Q9BW27); experiment: Surface plasmon resonance binding to FROUNT; conditions: SPR, concentration-dependent
T1 construct: made in house
T1 sequence (Q9BW27 1-656): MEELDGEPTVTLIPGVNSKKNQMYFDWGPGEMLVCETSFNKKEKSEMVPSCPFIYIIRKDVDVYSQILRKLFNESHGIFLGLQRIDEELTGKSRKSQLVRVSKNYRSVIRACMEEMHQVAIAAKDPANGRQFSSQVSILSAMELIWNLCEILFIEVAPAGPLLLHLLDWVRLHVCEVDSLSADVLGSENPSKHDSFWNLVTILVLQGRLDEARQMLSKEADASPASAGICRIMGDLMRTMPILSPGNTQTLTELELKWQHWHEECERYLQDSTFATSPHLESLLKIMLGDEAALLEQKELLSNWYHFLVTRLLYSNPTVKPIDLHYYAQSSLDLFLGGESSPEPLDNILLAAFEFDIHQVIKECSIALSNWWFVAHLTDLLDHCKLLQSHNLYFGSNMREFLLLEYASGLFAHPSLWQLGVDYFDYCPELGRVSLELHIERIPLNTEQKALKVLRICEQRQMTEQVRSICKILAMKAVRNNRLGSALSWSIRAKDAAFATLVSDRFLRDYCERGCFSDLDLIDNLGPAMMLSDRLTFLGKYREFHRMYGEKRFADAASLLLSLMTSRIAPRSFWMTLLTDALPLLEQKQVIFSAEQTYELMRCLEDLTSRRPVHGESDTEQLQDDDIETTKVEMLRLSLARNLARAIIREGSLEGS
Procedure: Interactions between FROUNT and library compounds were analyzed by surface plasmon resonance using a Biacore T100 (GE Healthcare). Full-length FROUNT protein or the FROUNT-binding region of CCR2 was immobilized on the CM5 sensor chip[56]. […] The resonance unit (RU) was measured during the binding and washing periods, and the binding kinetics were analyzed. Solvent correction with DMSO was performed using Biacore T100 evaluation software.

[2] = system: PI3K activation in CCR2-expressing Chinese hamster ovary cells; experiment: PH-Akt domain translocation assay; assay type: cell-based; conditions: 25 µM DSF for 30 min
Excerpt: CCR2-expressing Chinese hamster ovary cells were transfected with PH-Akt-tHcRed. […] Cells were visualized with confocal microscopy using SP5 (Leica).

FROUNT-CCR2 interaction = target: T2, FROUNT-CCR2 interaction (Homo sapiens, UniProt Q9BW27); experiment: HTRF FROUNT-CCR2 interaction assay; assay type: binding
T2 construct: GST-fused FROUNT (FNT-C)
T2 sequence (Q9BW27 500-656 limits assumed): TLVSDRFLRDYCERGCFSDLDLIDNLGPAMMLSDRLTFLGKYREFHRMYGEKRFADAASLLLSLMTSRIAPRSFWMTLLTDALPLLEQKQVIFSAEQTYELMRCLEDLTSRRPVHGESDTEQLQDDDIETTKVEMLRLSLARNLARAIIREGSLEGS

C603S FROUNT = target: T3, C603S FROUNT (Homo sapiens, UniProt Q9BW27, C603S/L538E/P612S); experiment: NMR titration of C603S FROUNT mutant; assay type: binding; conditions: 50 µM DSF, 50 µM mutant
T3 construct: 50 µM CRBD of FROUNT (a.a. 532–656) bearing the L538E/P612S mutations or its mutant (C603S); made in house
T3 sequence (Q9BW27 532-656 L538E/C603S/P612S): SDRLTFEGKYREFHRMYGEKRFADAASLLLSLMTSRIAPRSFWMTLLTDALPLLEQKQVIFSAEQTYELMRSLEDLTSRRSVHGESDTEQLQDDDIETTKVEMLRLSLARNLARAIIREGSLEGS
Procedure: All ^1H–^15N heteronuclear single quantum correlation (HSQC) NMR spectra were measured at 25 °C on a Bruker 600-MHz AVANCE III spectrometer with a cryogenic probe. […] The assignments of the backbone ^1H^N and ^15N NMR signals of CRBD were performed, based on the previous paper. […] Combined chemical shift differences Δδ was calculated by Δδ = [(ΔδHN)^2 + (ΔδN/6.5)^2]^1/2, where ΔδHN and ΔδN are the chemical shift differences for ^1H^N and ^15N, respectively.

With `CCN(CC)C(=S)SSC(=S)N(CC)CC` [DSF, disulfiram] the in vitro growth (LLC tumor cells) was “no effect”, the cellular chemotaxis (THP-1 cells) was “inhibited” and the “binding to FROUNT protein” value [1] was “directly binds”. The “membrane localization of PH-Akt upon CCL2 stimulation” value [2] was “significantly impaired”, the “inhibition of FROUNT-CCR2 interaction” value (FROUNT-CCR2 interaction; HTRF) was “specifically inhibited” and the IC50 (FROUNT-CCR2 interaction; HTRF titration assay) was 42 nM. For the same molecule, the “binding to C603S FROUNT” value (C603S FROUNT) was “No significant binding”.
